Assay results taken from publication PMC10895697 (JAC-Antimicrobial Resistance, 2024).
Values after ≈ are worked out from the molar mass of the structure shown.

Columns and labels:
S. aureus = test system: S. aureus; design: method as in ref 19 (Abad et al.); settings: concentrations 10x or 100x respective MICs; ref 19 (Abad et al.); cited from earlier work
all S. aureus isolates = assay: MIC/MBC by broth microdilution, summary over all isolates; type: cell-based, Staphylococcus aureus; settings: Staphylococcus aureus, read-out: MICs for all S. aureus isolates
S. aureus 1818 (MSSA) = assay: MIC/MBC by broth microdilution reference method; type: cell-based, Staphylococcus aureus; settings: Staphylococcus aureus, MSSA
S. aureus 1817 (MSSA) = assay: MIC/MBC by broth microdilution reference method; type: cell-based, Staphylococcus aureus; settings: Staphylococcus aureus, MSSA
S. aureus 1334 (MSSA) = assay: MIC/MBC by broth microdilution reference method; type: cell-based, Staphylococcus aureus; settings: Staphylococcus aureus, MSSA
S. aureus 1814 (MRSA) = assay: MIC/MBC by broth microdilution reference method; type: cell-based, Staphylococcus aureus; settings: Staphylococcus aureus, MRSA
S. aureus 1333 (MSSA) = assay: MIC/MBC by broth microdilution reference method; type: cell-based, Staphylococcus aureus; settings: Staphylococcus aureus, MSSA
S. aureus 1815 (MRSA) = assay: MIC/MBC by broth microdilution reference method; type: cell-based, Staphylococcus aureus; settings: Staphylococcus aureus, MRSA
S. aureus 1816 (MSSA) = assay: MIC/MBC by broth microdilution reference method; type: cell-based, Staphylococcus aureus; settings: Staphylococcus aureus, MSSA
MSSA 1334 = assay: Mouse model of septic arthritis; type: in vivo; settings: MSSA 1334-infected mice, Pep16 10 mg/kg or vancomycin 100 mg/kg subcutaneous daily
Experimental: Female Swiss mice, obtained from Janvier Labs and aged between 11 and 13 weeks with an approximate weight of 34 g, were used. The experiments were conducted in the ARCHE animal facility (Biosit) in Rennes. Mice were inoculated IV with 200 μL of a 0.9% NaCl solution containing approximately 10^8 cfu of the 1334 strain (MSSA). […] These treatments were administered daily for a duration of 7 days. […] The mice were monitored on a daily basis, and on the seventh day, they were humanely euthanized using CO2. Subsequently, knee joints, spleen and kidneys were excised, weighed and homogenized in 0.9% NaCl using a Polytron PT 3100D homogenizer (Kinematica, Switzerland). Bacterial loads were determined by plating serial dilutions onto BHI agar and expressed as log10 cfu/g.
Figure 3. Bacterial loads (in log cfu/g) at Day 7 in knee joints, kidneys and spleen from mice infected by MSSA 1334. Mice were initially inoculated with approximately 1 × 10^8 cfu of MSSA 1334. […] Treatments were administered via subcutaneous injection and continued daily until the conclusion of the experiment. Individual dots on the graph represent cfu counts for single animals (enumerated at Day 7), with black horizontal lines indicating median values. The experiments were performed with five mice per condition, in triplicate for Pep16 and saline solution, and in duplicate for vancomycin. […]

[1] = test system: S. aureus ATCC 29213 (MSSA reference strain); assay: MIC/MBC by broth microdilution reference method; type: cell-based, Staphylococcus aureus; settings: Staphylococcus aureus

SMILES	reduction in intracellular bacteria (S. aureus)	MIC (all S. aureus isolates) [µg/mL]	MBC (S. aureus 1818 (MSSA)) [µg/mL]	MIC (S. aureus 1818 (MSSA)) [µg/mL]	MBC (S. aureus 1817 (MSSA)) [µg/mL]	MIC (S. aureus 1817 (MSSA)) [µg/mL]	MBC (S. aureus 1334 (MSSA)) [µg/mL]	MIC (S. aureus 1334 (MSSA)) [µg/mL]	MBC (S. aureus 1814 (MRSA)) [µg/mL]	MIC (S. aureus 1814 (MRSA)) [µg/mL]	MBC (S. aureus 1333 (MSSA)) [µg/mL]	MIC (S. aureus 1333 (MSSA)) [µg/mL]	MBC (S. aureus 1815 (MRSA)) [µg/mL]	MIC (S. aureus 1815 (MRSA)) [µg/mL]	MBC (S. aureus 1816 (MSSA)) [µg/mL]	MIC (S. aureus 1816 (MSSA)) [µg/mL]	survival of infected mice at Day 7 (MSSA 1334)	MBC [1] [µg/mL]	MIC [1] [µg/mL]
CO[C@H]1/C=C/O[C@@]2(C)Oc3c(C)c(O)c4c(O)c(c(/C=N/N5CCN(C)CC5)c(O)c4c3C2=O)NC(=O)/C(C)=C\C=C\[C@H](C)[C@H](O)[C@@H](C)[C@@H](O)[C@@H](C)[C@H](OC(C)=O)[C@@H]1C [rifampicin]	approximately 54.0%																		
CN[C@H](CC(C)C)C(=O)N[C@H]1C(=O)N[C@@H](CC(N)=O)C(=O)N[C@H]2C(=O)N[C@H]3C(=O)N[C@H](C(=O)N[C@H](C(=O)O)c4cc(O)cc(O)c4-c4cc3ccc4O)[C@H](O)c3ccc(c(Cl)c3)Oc3cc2cc(c3O[C@@H]2O[C@H](CO)[C@@H](O)[C@H](O)[C@H]2O[C@H]2C[C@](C)(N)[C@H](O)[C@H](C)O2)Oc2ccc(cc2Cl)[C@H]1O [VAN, vancomycin]		0.5 (≈ 0.345 µM)	0.5 (≈ 0.345 µM)	0.5 (≈ 0.345 µM)	0.5 (≈ 0.345 µM)	0.5 (≈ 0.345 µM)	0.5 (≈ 0.345 µM)	0.5 (≈ 0.345 µM)	0.5 (≈ 0.345 µM)	0.5 (≈ 0.345 µM)	0.5 (≈ 0.345 µM)	0.5 (≈ 0.345 µM)	0.5 (≈ 0.345 µM)	0.5 (≈ 0.345 µM)	0.5 (≈ 0.345 µM)	0.5 (≈ 0.345 µM)	had survived at Day 7	0.5 (≈ 0.345 µM)	0.5 (≈ 0.345 µM)
CO[C@H]1/C=C/O[C@@]2(C)Oc3c(C)c(O)c4c(O)c(c(/C=N/N5CCN(C6CCCC6)CC5)c(O)c4c3C2=O)NC(=O)/C(C)=C\C=C\[C@H](C)[C@H](O)[C@@H](C)[C@@H](O)[C@@H](C)[C@H](OC(C)=O)[C@@H]1C [rifapentine]	45.3%																		
